Test results taken from US8673870B2 (priority 2002, dated 2014).
Where “and” joins values, the source holds several entries; their conditions need not be identical. Equal entries are not always repeated.

Tests used:
[1] = tested on: APL cells; parameters: species or system mice; details: mouse, in vivo
[2] = tested on: Recombinant human RARα protein (rhRARα); parameters: species or system mice; details: in vivo
[3] = tested on: fragment C; details: in vivo
[4] = tested on: spleen cells stimulated with irradiated APL cells; test: Cytokine release assay (Th1/Th2 cytometric bead array); assay type: cell-based, mice
Procedure: Long term survivors (post day 300 illustrated in FIG. 2B) were sacrificed and tested for proliferation and cytokine release. Briefly, 5×10^5 responders (spleen cells from FVB/N injected with APL cells and treated with ATRA+PML-RARα-FrC or ScFvBCL1-FrC) were plated in each well with 200 μl of media consisting of RPMI 1640, 10% FCS and 0.5% […]. Spleen cells from healthy mice treated with ATRA. Stimulators (spleen cells from FVB/N, APL or BALB/c) were irradiated with 25 Gy and 1×10^6 cells were added to each well. After 24, 48 and 72 hours of incubation cells were assayed for ^3H-thymidine incorporation and supernatants were harvested for cytokine release assays. Cultures were set up in duplicate.
Cytokine release was measured using a mouse Th1/Th2 cytokine cytometric bead array kit according to the manufacturer's protocols (Becton, Dickinson, Pharmingen, San Jose, Calif.). This kit measures cytokines IL-2, IL-4, IL-5, IFN-γ and TNF-α. Long-term survivors of the mice from the protocol illustrated in FIG. 8, were sacrificed and spleen cells were cultured as described above. Briefly, 50 μl of supernatant was incubated with 50 μl of the mixed capture beads and 50 μl of the mouse Th1/Th2 PE detection reagent for 2 hours and analyzed on a FACSCalibur cytometer. Analysis was undertaken using the BD CBA (Becton Dickinson, Pharmingen) and Cell Quest software.

Compound	Survival versus comparison arms (Kaplan Meier), in words [1]	Survival: No. mice/total [1]	Time to relapse and death post transplant ([1]; sc)	Antibodies against RARα detected by ELISA, in words [2]	RARα Ab positive (%) [2]	RARα Ab positive: mice with detectable antibodies/mice alive [2]	Antibody response to fragment C (mice responding/mice tested) [3]	IFN-γ release ([4]; 48 hours of culture, irradiated APL cells as stimulators, ATRA alone = spleen cells from healthy mice)	Lifespan, in words [1]	TNFα ([4]; with ATRA, approximately one year from injection of APL cells)
CC1=C(/C=C/C(C)=C/C=C/C(C)=C/C(=O)O)C(C)(C)CCC1 [ATRA, all-trans retinoic acid]	all of the mice relapse and die	24/24 (100%) and 5/24 (21%) and 0/24 (0%)	6-12 weeks	Significant levels of antibodies against RARα were detected	7/12 (58%) and 4/5 (80%)	0/12 and 7/12 (58%) and 4/5 (80%)	no antibodies to fragment C was detected	52 pg/mL		
ScFvBCL1-FrC: ScFv construct of King et al 1998 from a lymphoma patient fused in frame to BCL1 leader and fragment C (SEQ ID NO:11)									extended lifespan	increases in TNFα
